Measured values taken from ChEMBL document CHEMBL1152569, “Synthesis, structure-affinity relationships, and modeling of AMDA analogs at 5-HT2A and H1 receptors: structural factors contributing to selectivity” (Bioorg Med Chem, 2009).

Key:
[1] = biological target: 5-hydroxytryptamine receptor 2A (Homo sapiens, UniProt P28223); assay: Displacement of [3H]ketanserin from human 5HT2A receptor expressed in cells; type: cell-based
[2] = biological target: Histamine H1 receptor (Homo sapiens, UniProt P35367); assay: Displacement of [3H]chlorphniramine from human histamine H1 receptor expressed in cells; type: cell-based
Histamine H1 receptor, sequence (P35367 whole entry): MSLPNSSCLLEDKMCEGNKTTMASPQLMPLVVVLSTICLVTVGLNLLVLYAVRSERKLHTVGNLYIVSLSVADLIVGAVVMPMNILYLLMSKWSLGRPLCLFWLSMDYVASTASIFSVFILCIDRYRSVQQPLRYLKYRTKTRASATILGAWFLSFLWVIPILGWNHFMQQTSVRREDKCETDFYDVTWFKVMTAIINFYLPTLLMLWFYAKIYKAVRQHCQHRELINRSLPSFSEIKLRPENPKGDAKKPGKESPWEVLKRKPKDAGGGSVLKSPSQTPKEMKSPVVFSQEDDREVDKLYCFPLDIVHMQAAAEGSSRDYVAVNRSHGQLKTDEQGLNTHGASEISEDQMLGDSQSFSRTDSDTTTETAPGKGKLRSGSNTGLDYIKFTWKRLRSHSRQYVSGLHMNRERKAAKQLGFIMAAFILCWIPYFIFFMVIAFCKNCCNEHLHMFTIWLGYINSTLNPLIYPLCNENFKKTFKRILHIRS

5-hydroxytryptamine receptor 2A, sequence (P28223 whole entry): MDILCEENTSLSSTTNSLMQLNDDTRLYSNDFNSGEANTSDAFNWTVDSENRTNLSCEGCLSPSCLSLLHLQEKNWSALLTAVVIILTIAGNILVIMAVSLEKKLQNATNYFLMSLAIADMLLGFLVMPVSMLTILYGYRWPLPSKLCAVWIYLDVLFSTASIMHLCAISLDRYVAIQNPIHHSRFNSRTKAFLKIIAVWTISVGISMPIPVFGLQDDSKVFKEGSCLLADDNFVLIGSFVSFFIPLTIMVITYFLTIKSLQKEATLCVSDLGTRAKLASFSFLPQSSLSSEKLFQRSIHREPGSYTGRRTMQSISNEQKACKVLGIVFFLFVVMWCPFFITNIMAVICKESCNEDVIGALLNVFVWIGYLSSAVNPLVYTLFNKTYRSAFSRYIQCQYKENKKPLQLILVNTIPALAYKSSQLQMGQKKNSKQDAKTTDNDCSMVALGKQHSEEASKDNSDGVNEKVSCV

| SMILES | Ki [1] | Ki [2] |
| --- | --- | --- |
| CN(C)CC(c1ccccc1)c1ccccc1 | 7360 nM | 5170 nM |
| NCC(c1ccccc1)c1ccccc1 |  | > 10000 nM |
| CNCC(c1ccccc1)c1ccccc1 | > 10000 nM | > 10000 nM |
| NCCCC1c2ccccc2Cc2ccccc21 |  | 175 nM |
| NCCC1c2ccccc2Cc2ccccc21 |  | 137 nM |
| CN(C)CC1c2ccccc2Cc2ccccc21 |  | 25 nM |
| CN(C)CCCC1c2ccccc2Cc2ccccc21 |  | 0.5 nM |
| CNCCCC1c2ccccc2Cc2ccccc21 |  | 3 nM |
| NCC1c2ccccc2Cc2ccccc21 |  | 197 nM |
| CNCCC(c1ccccc1)c1ccccc1 | 1500 nM | 64 nM |
| NCCCC(c1ccccc1)c1ccccc1 | 2590 nM | 1670 nM |
| CN(C)CCC1c2ccccc2Cc2ccccc21 | 84 nM | 6 nM |
| CNCCCC(c1ccccc1)c1ccccc1 | 754 nM | 386 nM |
| CNCCC1c2ccccc2Cc2ccccc21 | 92 nM | 48 nM |
| CN(C)CCCC(c1ccccc1)c1ccccc1 | 1150 nM | 70 nM |
| NCCC(c1ccccc1)c1ccccc1 | > 10000 nM | 2760 nM |
| CN(C)CCC(c1ccccc1)c1ccccc1 | 1640 nM | 75 nM |
| CNCC1c2ccccc2Cc2ccccc21 |  | 189 nM |
